Among the data in patent US11560368B2, “Apoptosis signal-regulating kinase 1 inhibitors and methods of use thereof” (Enanta Pharmaceuticals, Inc., priority 2017, dated 2023) are IC50 values, retold here.

The target of the test is ASK1 kinase (Homo sapiens (Human), UniProt Q99683). The experiment in a line: ASK1 kinase inhibition, HTRF KinEASE-STK TR-FRET assay. The format is biochemical. The conditions noted are these: 5 nM ASK1, 1 uM STK3 peptide substrate, 100 uM ATP, 3 hours. As for the experimental part:
The ability (IC50) of compounds to inhibit ASK1 kinase activity was determined by HTRF® KinEASE™ Assay System.
ASK1 was purchased from Thermofisher (Catalogue # PV4011), ATP was purchased from Sigma (Catalogue # A7699), HTRF® KinEASE™ Assay System was obtained from Cisbio (Bedford, Mass.). ½ A Area plate was purchased from Perkin Elmer (Catalogue # #6005560). HTRF® KinEASE™-STK is a generic method for measuring serine/threonine kinase activities using a time-resolved fluorescence resonance energy transfer (TR-FRET) immunoassay. The IC50 value for each compound was determined in the presence of compound (various concentration from 0 to 10 μM) and a fixed amount of ATP and peptide substrates. The test compound, 1 uM STK3 peptide substrate, and 5 nM of ASK1 kinase are incubated with kinase reaction buffer containing 50 mM HEPES pH 7.5, 0.01% BRU-35, 10 mM MgCl2, and 1 mM EGTA for 30 minutes. 100 uM ATP is added to start kinase reaction and incubated for 3 hours. The STK3-antibody labeled with Eu^3+-Cryptate and 125 nM streptavidin-XL665 are mixed in a single addition with stop reagents provided by the Cisbio kit used to stop the kinase reaction. Fluorescence is detected using an Envision Multilabeled 2014 reader from PerkinElmer. The Fluorescence is measured at 615 nm (Cryptate) and 665 nm (XL665) and a ratio of 665 nm/615 nm is calculated for each well. […] IC50 was determined by XLfit 5.3. […]
In general terms: Time-resolved FRET reads energy transfer from a long-lived donor to a nearby acceptor.

Chain of ASK1 kinase (Q99683 whole entry): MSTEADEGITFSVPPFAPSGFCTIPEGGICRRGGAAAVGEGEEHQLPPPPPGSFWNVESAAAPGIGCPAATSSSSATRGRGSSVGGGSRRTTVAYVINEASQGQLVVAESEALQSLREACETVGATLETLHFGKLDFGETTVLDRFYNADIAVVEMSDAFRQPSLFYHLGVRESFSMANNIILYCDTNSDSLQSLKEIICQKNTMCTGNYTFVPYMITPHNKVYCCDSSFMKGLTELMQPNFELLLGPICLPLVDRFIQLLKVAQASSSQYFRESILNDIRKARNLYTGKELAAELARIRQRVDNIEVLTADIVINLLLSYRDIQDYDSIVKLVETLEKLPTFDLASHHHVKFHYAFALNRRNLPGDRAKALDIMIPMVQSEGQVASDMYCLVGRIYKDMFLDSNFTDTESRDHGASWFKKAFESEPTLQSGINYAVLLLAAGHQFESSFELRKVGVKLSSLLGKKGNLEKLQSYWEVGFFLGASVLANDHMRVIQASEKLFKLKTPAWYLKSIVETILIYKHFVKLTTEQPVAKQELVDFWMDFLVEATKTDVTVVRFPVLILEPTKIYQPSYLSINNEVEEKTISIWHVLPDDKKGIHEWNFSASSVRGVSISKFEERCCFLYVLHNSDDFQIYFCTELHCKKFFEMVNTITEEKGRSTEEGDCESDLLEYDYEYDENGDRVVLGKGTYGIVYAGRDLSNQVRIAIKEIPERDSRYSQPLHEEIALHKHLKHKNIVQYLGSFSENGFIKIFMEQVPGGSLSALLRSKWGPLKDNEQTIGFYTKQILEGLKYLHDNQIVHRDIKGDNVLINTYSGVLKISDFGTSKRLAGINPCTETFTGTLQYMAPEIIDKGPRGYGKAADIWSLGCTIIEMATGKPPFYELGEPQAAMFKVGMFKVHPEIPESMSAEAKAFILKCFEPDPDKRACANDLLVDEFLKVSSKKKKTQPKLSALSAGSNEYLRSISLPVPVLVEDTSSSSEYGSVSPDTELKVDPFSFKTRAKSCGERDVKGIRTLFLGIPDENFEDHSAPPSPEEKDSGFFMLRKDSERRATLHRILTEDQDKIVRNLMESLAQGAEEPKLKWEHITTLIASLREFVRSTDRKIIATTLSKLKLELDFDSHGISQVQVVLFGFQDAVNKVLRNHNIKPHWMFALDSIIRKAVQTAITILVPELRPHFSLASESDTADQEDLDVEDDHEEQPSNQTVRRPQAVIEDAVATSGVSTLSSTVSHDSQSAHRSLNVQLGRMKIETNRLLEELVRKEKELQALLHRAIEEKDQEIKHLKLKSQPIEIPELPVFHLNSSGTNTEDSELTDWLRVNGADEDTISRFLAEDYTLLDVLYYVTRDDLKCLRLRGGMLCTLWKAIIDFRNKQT

In the case of `Cc1cc(F)c(C(=O)Nc2cccc(-c3nnnn3C(C)C)n2)cc1-n1cnc(C(F)(F)F)c1` [Example 2b], the 50% inhibitory concentration (IC50) (as a rule, the concentration at which inhibition is half-maximal) lay in the range of 100 to 1000 nM.
